Assay: in vitro
Settings: human, hela cells, % viability

In order of rising viability at 28.5 h, 10 µM:
1. O=C(CCn1c(C(F)F)cc2cccnc21)NCC1CCCO1 (centres unmarked) [CBK282165]  83%
2. CCCC(=O)NCCn1ncc(-c2ccncc2)c1C1CC1 [CBK282116]  83.6%
3. Cc1nc(C)c(C(=O)NCCN2CCCC2=O)s1 [CBK282222]  84.2%
4. CC(C)c1cc(C(=O)N(CCO)CC2CC3C=CC2C3)n(C)n1 (centres unmarked) [CBK282164]  84.6%
5. CCn1nc(C(C)C)cc1C(=O)NCCN1CCC(C)CC1 [CBK282107]  85.6%
6. CN(C)CC1CCCN(C(=O)c2cc3cc(F)ccc3n2C)C1 (centres unmarked) [CBK282122]  85.6%
7. Cc1nc2ccc(C(=O)N3CCN(C4CCCCC4)C(=O)C3)cc2[nH]1 [CBK282131]  86.5%
8. Cc1csc(C(Cc2ccsc2)NC(=O)C2CC2C)n1 (centres unmarked) [CBK282226]  86.7%
9. c1ccc(CN2C[C@H]3CCc4c[nH]nc4[C@H]3C2)nc1 [CBK282108]  87%
10. CCN(CC)C(=O)CCn1c(-c2ccc(C)nc2)cc2cccnc21 [CBK282150]  87.2%
11. O=C(c1ccncc1)N1C[C@H]2CCc3c(n[nH]c3C(F)(F)F)[C@H]2C1 [CBK282110]  87.3%
12. Cc1nc(C(Cc2ccsc2)NC(=O)C2CCCNC2)sc1C (centres unmarked) [CBK282228]  87.6%
13. Cc1nc(C2CCN(Cc3ccccc3)C2)c2ccccn12 (centres unmarked) [CBK282111]  88.1%
14. CC(Cn1cccn1)NCc1cn(C)c2cc(F)ccc12 (centres unmarked) [CBK282220]  88.4%
15. CCn1cc(-c2cncn2CCCn2ccnc2C(C)C)cn1 [CBK282244]  89.4%
16. CN(CC(F)(F)F)C(=O)CCc1nc(-c2cccs2)no1 [CBK282215]  89.8%
17. CC(CNC(=O)Cn1nc(C(F)(F)F)c2c1CCC2)N1CCCC1 (centres unmarked) [CBK282212]  89.9%
18. COc1ccc2c(c1)c(C)c(C(=O)N1CCCCC1CN(C)C)n2C (centres unmarked) [CBK282190]  90.1%
19. O=C(CC1CCCCO1)Nc1cccc(Cn2ccnc2)c1 (centres unmarked) [CBK282204]  90.6%
20. CCN1CCCCC1CNC(=O)c1cc(C2CC2)n[nH]1 (centres unmarked) [CBK282205]  91.1%
21. CC1CCCN(C(=O)CCn2c(-c3ccccn3)cc3cccnc32)C1 (centres unmarked) [CBK282154]  91.2%
22. Cn1nc(C2CC2)cc1C(=O)NCCN1CCc2ccccc21 [CBK282138]  91.5%
23. CCN(CC)C(=O)CCn1c(-c2cccnc2C)cc2cccnc21 [CBK282147]  91.5%
24. Cc1nc(C2CCN(C(=O)c3ccccn3)CC2)c2sccn12 [CBK282238]  91.6%
25. Cc1csc(C(Cc2ccsc2)NC(=O)CC2CCCO2)n1 (centres unmarked) [CBK282227]  92.1%
26. O=C(Cc1ccccn1)NC(Cc1cccs1)c1ccccn1 (centres unmarked) [CBK282243]  93.1%
27. CCn1nc(C)c(CN(C)Cc2nc3ccccc3[nH]2)c1C [CBK282126]  93.9%
28. Cc1nc(SCC(=O)NCC2CCCOC2)oc1C (centres unmarked) [CBK282195]  94.6%
29. CCN1CCCCC1CNC(=O)c1n[nH]c2c1CCC2 (centres unmarked) [CBK282207]  96.2%
30. O=C(CCn1c(-c2ccncc2)cc2cccnc21)N1CCCC1 [CBK282151]  96.7%
31. CC(C(=O)N1CCC(c2nn(C)c3ncccc23)CC1)c1ccccc1 (centres unmarked) [CBK282166]  97.4%
32. Cc1cc(C(=O)N2CCN3C(=O)CCC32C)c(C2CC2)o1 (centres unmarked) [CBK282092]  97.6%
33. CC1CCCN(CC(C)(C)NC(=O)c2ccnn2C(F)F)C1 (centres unmarked) [CBK282099]  98.4%
34. Cc1cnn(CC(=O)N2CCCCC2CN2CCCCCC2)c1 (centres unmarked) [CBK282103]  98.9%
35. CCc1noc(C)c1C(=O)NCCN1CCCCC1C (centres unmarked) [CBK282219]  98.9%
36. O=C(C1CC1)N1CCCc2cc(C(O)CN3CCCCC3)ccc21 (centres unmarked) [CBK282135]  99.5%
37. O=C(CCc1ccncc1)N1CCCCC1CN1CCCCCC1 (centres unmarked) [CBK282102]  99.6%
38. Cc1nc(C2CCN(C(=O)c3ccncc3)CC2)c2sccn12 [CBK282235]  99.9%
39. CC1(C)OC(=O)CC1C(=O)N1CCCC(COc2ccccc2F)C1 (centres unmarked) [CBK282098]  100%
40. O=C(C1CCCN(CC(O)c2cccs2)C1)N1CCCCCC1 (centres unmarked) [CBK282117]  100%
41. CC1CCCN(CC(O)c2ccc3c(c2)CCCN3C(=O)C2CC2)C1 (centres unmarked) [CBK282136]  100%
42. CC(=O)N1CCC(c2cc(-c3cccc(F)c3)n(C)n2)CC1 [CBK282097]  101%
43. CC(=O)NCCn1cc2c(n1)[C@H]1CN(C(=O)C(C)(C)C)C[C@H]1CC2 [CBK282168]  102%
44. Cc1nn(CC(C)C(=O)N2CCCC(CN(C)C)C2)c(C)c1Cl (centres unmarked) [CBK282186]  102%
45. Cc1c(C(=O)NC(C)c2ccncc2)oc2c(F)cccc12 (centres unmarked) [CBK282105]  103%
46. O=C(C1CC2C=CC1C21CC1)N1CCC(Oc2ccccc2F)CC1 (centres unmarked) [CBK282179]  103%
47. CN(CCCN1CCCCC1)C(=O)C1Cc2cc(Cl)ccc2O1 (centres unmarked) [CBK282162]  104%
48. Cc1c(CN2CCCCC2CCN2CCCC2=O)oc2ccccc12 (centres unmarked) [CBK282181]  104%
49. CCC(CC)C(=O)N1C[C@H]2CCc3cn(CCNC(C)=O)nc3[C@H]2C1 [CBK282183]  104%
50. COc1ccc2c(c1)CCCN2C(=O)CCn1ccc(C)n1 [CBK282217]  104%
51. Cn1ccnc1SCCNC(=O)c1cccc(Cn2cccn2)c1 [CBK282112]  105%
52. CCC(=O)N1CCCc2cc(C(O)CN3CCC(C)CC3)ccc21 (centres unmarked) [CBK282144]  105%
53. Cc1nc(C)n(CCC(=O)NC(C)c2cccs2)n1 (centres unmarked) [CBK282224]  105%
54. CN1CC(c2ccccc2)C2(CCNCC2)C1 (centres unmarked) [CBK282225]  105%
55. CCN(CC)C(=O)CCn1c(-c2cccnc2)cc2cccnc21 [CBK282160]  106%
56. Cc1nc(C)c(C(=O)NCCN2CCCCC2C)s1 (centres unmarked) [CBK282200]  106%
57. O=C(C1C2CCCCC21)N1CCC(Oc2cccc(F)c2)CC1 (centres unmarked) [CBK282216]  106%
58. Cc1nn(Cc2ccccc2)c(C)c1CC(=O)NCCn1ccnc1 [CBK282095]  107%
59. CCC(=O)N1CCC(c2cc(-c3cccc(F)c3)n(C)n2)CC1 [CBK282096]  107%
60. Cc1nn(C(C)CC(=O)N2CCCC(CN(C)C)C2)c(C)c1Cl (centres unmarked) [CBK282137]  107%
61. CC1CCCN(C(=O)CCn2c(-c3ccncc3)cc3cccnc32)C1 (centres unmarked) [CBK282152]  108%
62. CN(C)CC1CCCCN1C(=O)C1CC(=O)N(c2cccc(F)c2)C1 (centres unmarked) [CBK282192]  108%
63. CCc1cc(C(=O)N2CCC(Oc3ccccc3F)CC2)n(C)n1 [CBK282172]  109%
64. CCn1c(CN(C)Cc2cc(C)[nH]n2)nc2ccccc21 [CBK282120]  110%
65. CN(C)CC1CCCN(C(=O)c2cc3cc(Cl)ccc3n2C)C1 (centres unmarked) [CBK282121]  111%
66. Cc1ccc(-c2nc(C)sc2CC(=O)N(C)CCN(C)C)cc1 [CBK282175]  112%
67. CC(=O)NC(c1nccs1)C1CCCN(C(=O)C2CCCCC2)C1 (centres unmarked) [CBK282170]  113%
68. CCCn1ncc(C(=O)N2CCC(Oc3ccccc3F)CC2)c1C [CBK282169]  115%

— article PMC12040169 (PLOS Biology, 2025)
